From patent publication EP1367044B1, “Calixarene-derivatives having anti-viral activity” (Aids Care Pharma Limited, priority 2002, dated 2003)

What was measured:
[1] = test system: HIV; details: drug used on its own, patients; cited from earlier work
[2] = human, in vivo; cited from earlier work
[3] = biological target: gp120/CD4 binding (UniProt P01730+P03375); test: Test 1: inhibition of gp120/CD4 binding, recombinant proteins in an immunoassay format
[4] = test system: wild-type HIV-1(111a); assay type: cell-based; details: CEM cells, 4 days incubation at 37°C, syncytium formation
Procedure: The results shown in Table 1 for test 2 were obtained by testing cell cultures in accordance with the following procedure.
CEM cells were suspended at approximately 250,000 cells per milliliter of culture medium and infected with wild-type HIV-1(111a) at approximately 100 times the 50% cell culture infective dose (CCID50) per milliliter. Then 100µl of the infected cell suspensions were added to 200 µl microtiter plate wells containing 100 µl of an appropriate dilution of the test compounds. After 4 days incubation at 37°C the cell cultures were microscopically examined for syncytium formation.

Molecule	REDUCTION IN VIRAL LOAD [1]	SIDE EFFECTS [2]	other results
Nc1nc(NC2CC2)c2ncn([C@H]3C=C[C@@H](CO)C3)c2n1 [Abacavir]	50-90%		
CC(C)Nc1cccnc1N1CCN(C(=O)c2cc3cc(NS(C)(=O)=O)ccc3[nH]2)CC1 [Delaviridine]	50-90%		
O=c1[nH]cnc2c1ncn2[C@H]1CC[C@@H](CO)O1 [Didanosine (ddl), Didanosine]	50-90%		
O=C1Nc2ccc(Cl)cc2[C@@](C#CC2CC2)(C(F)(F)F)O1 [Efavirenz]	50-90%		
Nc1ccn([C@@H]2CS[C@H](CO)O2)c(=O)n1 [Lamivudine (3TC), Lamivudine]		gastrointestinal disturbances, hair loss, myelosuppression, exacerbation of peripheral neuropathy	
Cc1c(O)cccc1C(=O)N[C@@H](CSc1ccccc1)[C@H](O)CN1C[C@H]2CCCC[C@H]2C[C@H]1C(=O)NC(C)(C)C [Nelfinavir (Viracept), Nelfinavir]		diarrohea, nausea & vomiting	
Cc1ccnc2c1NC(=O)c1cccnc1N2C1CC1 [Nevirapine]	50-90%		
CC(C)c1nc(CN(C)C(=O)N[C@H](C(=O)N[C@@H](Cc2ccccc2)C[C@H](O)[C@H](Cc2ccccc2)NC(=O)OCc2cncs2)C(C)C)cs1 [Ritonavir]		diarrhoea nausea, vomiting, hepatitis, headache	
CC(C)(C)NC(=O)[C@@H]1C[C@@H]2CCCC[C@@H]2CN1C[C@@H](O)[C@H](Cc1ccccc1)NC(=O)[C@H](CC(N)=O)NC(=O)c1ccc2ccccc2n1 [Saquinavir]		loose stools, nausea, headache	
Cc1cn([C@H]2C=C[C@@H](CO)O2)c(=O)[nH]c1=O [Stavudine (d4T), Stavudine]	50-90%		
Nc1ccn([C@H]2CC[C@@H](CO)O2)c(=O)n1 [Zalcitabine (ddc), Zalcitabine]	50-90%		
Cc1cn([C@H]2C[C@H](N=[N+]=[N-])[C@@H](CO)O2)c(=O)[nH]c1=O [Zidovudine (AZT), Zidovudine]	50-90%	myelosupression, myopathy, nausea, headache, anaemia	
dodecapotassium acetate of p-bromopyrogallol P-F-phenyl tetramer [AC-1 (1151c)]			% inhibition of gp120/CD4 binding ([3]; Conc um 0.39): 48%; % inhibition of gp120/CD4 binding ([3]; Conc um 0.78): 55%; % inhibition of gp120/CD4 binding ([3]; Conc um 1.56): 62%; % inhibition of gp120/CD4 binding ([3]; Conc um 3.125): 70%; % inhibition of gp120/CD4 binding ([3]; Conc um 6.25): 82%; % inhibition of gp120/CD4 binding ([3]; Conc um 12.5): 86%; % inhibition of gp120/CD4 binding ([3]; Conc um 25): 91%; % inhibition of gp120/CD4 binding ([3]; Conc um 50): 93%; % inhibition of gp120/CD4 binding ([3]; Conc um 100): 96%; EC50 ([3]; read-out: Test 1 EC50, concentration which reduces gp120 interaction with CD4 by 50%): 500 to 1000 nM; Test 2 EC50 [4]: 4 µg/mL
